The test system of one assay is cucumber downy mildew. Briefly: Protectant activity in vivo (whole plant), cucumber downy mildew. As to conditions: protectant activity. As to the method: (§1) The method is as followed: The whole plant is used in this test. The compound is dissolved in a proper solvent to get mother solution. The proper solvent is selected from acetone, methanol, DMF and so on according to their dissolving capability to the sample. […] The testing solution is sprayed to the host plant by a special plant sprayer. The plant is inoculated with fungus after 24 hours. According to the infecting characteristic of fungus, the plant is stored in a humidity chamber and then transferred into greenhouse after infection is finished. And the other plants are placed in greenhouse directly.

For another assay, the system named is wheat powdery mildew. Kind of assay: Protectant activity in vivo (whole plant), wheat powdery mildew. As to conditions: for control effect against wheat powdery mildew (%): protectant activity. The protocol:
as §1

For `COc1ccc(-n2cc(CCNc3nc(C)nc(C)c3Cl)cn2)cc1` [Compound 1424], the “control effect against cucumber downy mildew(%)” value is 98% in the assay with cucumber downy mildew (25 mg/L), 100% in the assay on cucumber downy mildew (50 mg/L), 100% with cucumber downy mildew (100 mg/L) and 100% with cucumber downy mildew (400 mg/L).
On to `Cc1ncnc(NCCc2cnn(-c3ccc(Cl)cc3Cl)c2)c1Cl` [Compound 261], for which the “control effect against cucumber downy mildew(%)” value with cucumber downy mildew (12.5 mg/L), in the assay on cucumber downy mildew (25 mg/L), in the assay with cucumber downy mildew (50 mg/L), in the assay with cucumber downy mildew (100 mg/L) and in the assay with cucumber downy mildew (400 mg/L) was 100% in each case. Besides, the “control effect against wheat powdery mildew (%)” value in the assay on wheat powdery mildew (6.25 mg/L) amounted to 50%; in the assay with wheat powdery mildew (25 mg/L) it was 60%; with wheat powdery mildew (100 mg/L) it was 80%; in the assay on wheat powdery mildew (400 mg/L), 100%.
Turning to `CCc1ncnc(NCCc2cnn(-c3ccc(Cl)cc3Cl)c2)c1Cl` [Compound 539], the “control effect against cucumber downy mildew(%)” value with cucumber downy mildew (25 mg/L), in the assay with cucumber downy mildew (50 mg/L), in the assay on cucumber downy mildew (100 mg/L) and in the assay with cucumber downy mildew (400 mg/L) was 100% in each case.
As to `COc1ccc(-n2cc(CCNc3ncnc(C)c3Cl)cn2)cc1` [Compound 312], the “control effect against cucumber downy mildew(%)” value with cucumber downy mildew (25 mg/L), in the assay on cucumber downy mildew (50 mg/L), with cucumber downy mildew (100 mg/L) and in the assay with cucumber downy mildew (400 mg/L) was 100% each time. Further, the “control effect against wheat powdery mildew (%)” value in the assay on wheat powdery mildew (6.25 mg/L) was determined as 95%; in the assay on wheat powdery mildew (25 mg/L), 100%; in the assay with wheat powdery mildew (100 mg/L), 100%; in the assay on wheat powdery mildew (400 mg/L), 100%.
`Cc1ncnc(NCCc2cnn(-c3ccc(C(F)(F)F)cc3)c2)c1Cl` [Compound 309]: the “control effect against wheat powdery mildew (%)” value with wheat powdery mildew (6.25 mg/L) is listed as 80%; with wheat powdery mildew (25 mg/L) it was 85%; in the assay with wheat powdery mildew (100 mg/L) it was 90%; in the assay on wheat powdery mildew (400 mg/L), 100%.
With `Cc1ccc(-n2cc(CCNc3ncnc(C(F)F)c3Cl)cn2)cc1` [Compound 853], the “control effect against cucumber downy mildew(%)” value with cucumber downy mildew (25 mg/L) is listed as 80%; in the assay with cucumber downy mildew (50 mg/L) it was 100%; with cucumber downy mildew (100 mg/L) it was 100%; with cucumber downy mildew (400 mg/L), 100%.
Regarding `CCc1ncnc(NCCc2cnn(-c3ccc(OC)cc3)c2)c1Cl` [Compound 590], the “control effect against cucumber downy mildew(%)” value with cucumber downy mildew (25 mg/L), in the assay with cucumber downy mildew (50 mg/L), with cucumber downy mildew (100 mg/L) and with cucumber downy mildew (400 mg/L) was 100% each time.
As for `COc1ccc(-n2cc(CCNc3ncnc(C(F)F)c3Cl)cn2)cc1` [Compound 868], the “control effect against cucumber downy mildew(%)” value in the assay with cucumber downy mildew (12.5 mg/L) came to 85%; with cucumber downy mildew (25 mg/L) it was 100%; in the assay with cucumber downy mildew (50 mg/L), 100%; in the assay on cucumber downy mildew (100 mg/L) it was 100%; in the assay with cucumber downy mildew (400 mg/L), 100%. The “control effect against wheat powdery mildew (%)” value in the assay with wheat powdery mildew (6.25 mg/L), in the assay with wheat powdery mildew (25 mg/L), in the assay on wheat powdery mildew (100 mg/L) and in the assay with wheat powdery mildew (400 mg/L) was 100% each time. The “protectant activity against wheat powdery mildew in vivo” value with wheat powdery mildew (1.6 ppm) is reported as 80%.

The record behind these values is US9682962B2, “Pyrazolyl pyrimidinamine compound and application thereof” (SHENYANG SINOCHEM AGROCHEMICALS R&D CO., LTD., priority 2013, dated 2017).
